In ChEMBL document CHEMBL1201862, “PubChem BioAssay data set” (2004):
Activity calls are given as the source filed them.

Legend:
[1] = biological target: Neuropeptide Y receptor type 2 (Homo sapiens, UniProt P49146); assay: Fluorescence-based counterscreen for agonists of NPY-Y1: cell-based high-throughput dose response assay for agonists of NPY-Y2.; format: functional
[2] = system: HEK293; assay: Fluorescence-based counterscreen for potentiators or agonists of NPY-Y1: cell-based high-throughput dose response assay for inhibitors of cyclic nucleotide gated ion channel (CNGC) activity. In this assay, the parental HEK293 cell line transfected with a cyclic-nucleotide gated ion channel (CNGC)-based cAMP sensor is used to measure inhibition of isoproterenol-induced CNGC …; format: functional; conditions: Homo sapiens
[3] = biological target: Neuropeptide Y receptor type 1 (Homo sapiens, UniProt P25929); assay: Fluorescence-based dose response cell-based high-throughput screening assay for agonists of NPY-Y1. [Related pubchem assays: 1697 (Screening assay (NPY-Y1 agonists).), 1359 (Screening assay (NPY-Y2 potentiators or agonists).), 1304 (Screening assay (NPY-Y1 potentiators or agonists).), 1704 (Screening assay (CNGC inhibitors).), 1791 (Summary AID.)]; format: functional
[4] = system: Vero; assay: cells; format: functional, cell-based; conditions: Chlorocebus sabaeus
[5] = system: Vero; assay: cells; format: functional; conditions: Chlorocebus sabaeus
[6] = biological target: T1, Long-chain-fatty-acid--AMP ligase FadD28 (Mycobacterium tuberculosis, UniProt P9WQ59); assay: Fluorescence polarization aasay to screen for inhibitors that compete for the binding of FadD28 to a bisubstrate Measured in Biochemical System Using Plate Reader - 2147-01_Inhibitor_Dose_CherryPick_Activity.; format: functional, Mycobacterium tuberculosis H37Rv
T1 sequence (P9WQ59 whole entry): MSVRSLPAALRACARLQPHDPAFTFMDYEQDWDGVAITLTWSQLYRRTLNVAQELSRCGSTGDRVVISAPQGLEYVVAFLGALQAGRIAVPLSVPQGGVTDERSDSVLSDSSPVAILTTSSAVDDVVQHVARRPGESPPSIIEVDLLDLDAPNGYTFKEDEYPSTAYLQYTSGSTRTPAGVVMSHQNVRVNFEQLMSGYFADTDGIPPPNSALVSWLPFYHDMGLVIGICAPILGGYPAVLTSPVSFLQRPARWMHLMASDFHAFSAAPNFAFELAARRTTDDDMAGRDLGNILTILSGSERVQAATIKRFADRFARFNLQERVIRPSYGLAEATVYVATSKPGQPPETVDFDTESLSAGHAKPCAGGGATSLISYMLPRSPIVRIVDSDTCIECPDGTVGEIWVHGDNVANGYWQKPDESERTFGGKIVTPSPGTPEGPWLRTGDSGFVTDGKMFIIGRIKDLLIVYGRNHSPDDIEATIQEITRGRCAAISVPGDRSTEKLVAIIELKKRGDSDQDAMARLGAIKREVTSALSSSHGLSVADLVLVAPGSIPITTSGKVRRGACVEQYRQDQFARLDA

[7] = HepG2 cell cytotoxicity, dose response, cytotoxicity control, ATP luminescence, cherry-pick, activator set 2 (AID 1053143); format: functional, cell-based
[8] = biological target: Interleukin-8 (Homo sapiens, UniProt P10145); assay: SAR analysis of tumor necrosis factor alpha (TNF-alpha) induced IL-8 secretion in MCF-7/NOD1 cells. [Related pubchem assays (depositor defined):AID1575, AID2250, AID2260]; format: functional, cell-based
Sequence of Interleukin-8 (P10145 whole entry): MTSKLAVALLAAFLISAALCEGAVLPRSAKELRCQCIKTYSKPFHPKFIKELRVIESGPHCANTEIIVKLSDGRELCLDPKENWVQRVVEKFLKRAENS

Sequence of Neuropeptide Y receptor type 2 (P49146 whole entry): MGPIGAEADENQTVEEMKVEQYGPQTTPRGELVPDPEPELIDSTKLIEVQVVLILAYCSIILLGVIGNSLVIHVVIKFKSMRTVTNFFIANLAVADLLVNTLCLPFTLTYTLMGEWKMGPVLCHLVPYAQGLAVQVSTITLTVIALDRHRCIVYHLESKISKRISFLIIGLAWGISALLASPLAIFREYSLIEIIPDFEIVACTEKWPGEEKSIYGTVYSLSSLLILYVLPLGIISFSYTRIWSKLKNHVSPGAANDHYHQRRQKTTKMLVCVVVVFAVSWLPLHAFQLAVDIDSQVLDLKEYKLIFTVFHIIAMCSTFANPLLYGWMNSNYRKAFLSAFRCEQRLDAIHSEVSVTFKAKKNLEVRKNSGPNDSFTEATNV
Sequence of Neuropeptide Y receptor type 1 (P25929 whole entry): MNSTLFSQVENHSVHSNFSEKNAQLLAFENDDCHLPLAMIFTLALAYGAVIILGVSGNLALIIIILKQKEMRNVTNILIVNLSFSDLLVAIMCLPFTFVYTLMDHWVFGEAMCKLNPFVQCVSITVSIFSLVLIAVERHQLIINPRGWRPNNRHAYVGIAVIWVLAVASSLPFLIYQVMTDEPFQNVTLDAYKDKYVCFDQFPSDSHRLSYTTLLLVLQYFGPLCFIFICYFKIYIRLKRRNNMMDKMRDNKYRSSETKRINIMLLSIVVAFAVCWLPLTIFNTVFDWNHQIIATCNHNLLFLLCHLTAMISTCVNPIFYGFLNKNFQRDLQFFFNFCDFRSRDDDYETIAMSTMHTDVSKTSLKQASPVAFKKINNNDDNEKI

With `Cn1cc([N+](=O)[O-])c(C(=O)Nc2ccc(C3CCCCC3)cc2)n1` as the compound, how does the EC50 [1] read?
The EC50 was 12.1 µM (not active).

And the IC50 [2]?
Its IC50 is 8.17 µM (active).

What about the EC50 [3] of the same compound?
Its EC50 is 9.71 µM (active).

And the IC50 [4]?
The IC50 was 9.92 µM (active).

And the CC50 [5]?
The CC50 was > 25 µM (active).

And the AC50 [6]?
The AC50 was > 100 µM (inactive).

What about the AC50 [7] of the same compound?
The AC50 was 18.5 µM (active).

Which IC50 [8] does the source give for `COc1ccc(S(=O)(=O)n2c(N)nc3ccccc32)cc1` here?
Its IC50 is > 5 µM (inactive).
